# Test results published in patent US11248018B2, “Process for preparation of nicotinamide riboside (NR) and cosmetic composition comprising (NR and a phosphate-binding agent” (YISSUM RESEARCH DEVELOPMENT COMPANY OF THE HEBREW …, priority 2016, dated 2022).
# Tests used:
# Assay type in all cases: physicochemical
# [1] = Stability of commercial NR product under hydrolytic conditions in deionized water, followed by NMR
# Procedure: Additionally, to establish the stability of the commercial NR product (Niagen® purchased from ChromaDex) under hydrolytic conditions, it was dissolved in deionized water as described herein and the mixture was analyzed every 3 hours using ^1H- and ^31P-NMR.
# [2] = One-stage hydrolysis of NAD^+ with ZrCl4 and calcium L-ascorbate in water at 80° C. (Example 2), concentrations over time; settings: for Relative Concentration: Example 2, ZrCl4 + calcium L-ascorbate, 80° C.
# Procedure: NMR spectra were recorded with 400 MHz Bruker spectrometer. Reversed phase HPLC column of RP-18 type (Chromolith performance RP18e (100-4.6 mm) UM8 086/001, Merck KGaA) using deionized HPLC-grade solvents in the following composition: 1% acetonitrile, 99% water. Flow rate was 0.1 mL/min, detection performed with UV detector at 260 nm. Mass Spectrometry (MS), 6200 series TOF/6500 series Q-TOF B.05.01 (B5125.1).
# In a 250-ml flask, a mixture of NAD^+ (0.33 gr), ZrCl4 (0.58 gr) and 1.80 gr of calcium L-ascorbate in 100 ml of deionized water was heated to 80° C. for 2 days. Over this time period, full conversion of the NAD^+ was observed by HPLC. Decomposition of the desired NR product was also observed under these conditions, but to a lower extent in comparison with the process of Example 1. HR-MS spectrum of the product is MW of 255.10. The extent of the decomposition of the desired NR was determined by comparing the abundance of the desired peak to the abundance of the internal standard.
# [3] = Hydrolysis of NAD^+ with phosphate binding agent (calcium L-ascorbate) alone in water at 80° C. (Example 3), concentrations over time; settings: for Relative Concentration: Example 3, calcium L-ascorbate alone, 80° C.
# Procedure: In a 250-ml flask, a mixture of NAD^+ (0.34 gr) and 1.8 gr of calcium L-ascorbate in 100 ml of deionized water was heated to 80° C. for 4 days. The mixture was analyzed every 3 hours using HPLC and ^31P-NMR.
# The rate of the tertiary hydrolysis (decomposition of the NR) is slower. Under these conditions, the concentration of the NR remains essentially stable (˜10% decline) over 24 hours (steady-state). The concentration was determined by comparing the abundance of the desired peak to the abundance of the internal standard MS and ^1H- and ^31P-NMR (intensity of the signal). After this time the concentration of the NR decreased and the product was no longer present.
Relative Concentration ([2]; time 0 hours),Relative Concentration ([2]; time 0.5 hours),Relative Concentration ([2]; time 6 hours),Relative Concentration ([2]; time 16 hours),Relative Concentration ([2]; time 24 hours),Relative Concentration ([3]; time 0 hours),Relative Concentration ([3]; time 0.5 hours),Relative Concentration ([3]; time 6 hours),Relative Concentration ([3]; time 16 hours),Relative Concentration ([3]; time 24 hours),Relative Concentration ([3]; time 36 hours),Relative Concentration ([3]; time 48 hours),SMILES,further results
,,,,,,,,,,,,"NC(=O)c1ccc[n+]([C@@H]2O[C@H](CO)[C@@H](O)[C@H]2O)c1 [NR (Niagen ®), Nicotinamide riboside]",NR peak at 6.15 ppm in 1H-NMR versus DMF internal standard ([1]; after 24 hours): NR has degraded; Relative Concentration ([1]; time 0.5 hours): 1; Relative Concentration ([1]; time 3 hours): 0.62; Relative Concentration ([1]; time 6 hours): 0.48; Relative Concentration ([1]; time 24 hours): 0.02; Relative Concentration ([1]; time 48 hours): 0
0,0.1,0.19,0.32,0.48,0,0.1,0.16,0.32,0.48,0.41,0.41,"NC(=O)c1cccnc1 [Nicotinamide, nicotinamide]",
0,0.05,0.06,0.02,0,0,0.06,0.11,0.09,0.08,0.01,0,"NC(=O)c1ccc[n+]([C@@H]2O[C@H](CO)[C@@H](O)[C@H]2O)c1 [NR, 1-(β-D-Ribofuranosyl)-nicotinamide]","stability of the NR concentrations ([2]; NR-containing aqueous solution, ZrCl4 with phosphate-binding agent added concurrently): about 6 hours; decline of NR concentration ([3]; over 24 hours (steady-state), Example 3): ~10%; time the concentration of the product remains stable (decline of no more than 10%) ([3]; solution from degrading NAD^+ with phosphate-binding agent alone, absence of ZrCl4): at least 24 hours"
1,0.66,0.32,0.05,0,1,0.86,0.62,0.55,0.38,0.22,0.2,"NC(=O)C1=CN([C@@H]2O[C@H](COP(=O)(O)OP(=O)(O)OC[C@H]3O[C@@H](n4cnc5c(N)ncnc54)[C@H](O)[C@@H]3O)[C@@H](O)[C@H]2O)C=CC1 [NAD^+, β-nicotinamide adenine dinucleotide]",
